According to PMC3004370, “PI3Kα Inhibitors That Inhibit Metastasis” (Oncotarget, 2010):

Tests used:
[1] = target: T1, p110β (Homo sapiens, UniProt P42338); assay: Biochemical PI3K inhibition assay, p110β
T1 construct: His-tag; made in house; host or cells: Sf9 insect cells (baculovirus)
From the text: (§1) cDNA clones of PIK3CA, PIK3CB and PIK3CG were obtained from Origene (Rockville, MD, USA). PIK3CD was generously provided by Novartis Pharmaceuticals. The cDNA clones were sub-cloned into pFastBac His-Tag (Invitrogen, Carlsbad, CA, USA) and baculovirus clones were generated by the Bac-to-Bac expression system (Invitrogen). p110α, p110β and p110δ were co-expressed in Sf9 insect cells (Invitrogen) with a nSH2-iSH2 fragment of the regulatory subunit p85 comprising AA residues 322 to 600 [4]. p110γ was expressed without a regulatory subunit. Sf9 cells were lysed in a buffer containing 50 mM sodium phosphate, pH 8.0, 400 mM NaCl, 5% glycerol, 1% Triton X-100, 10 mM 2-mercaptoethanol, 1 mM orthovanadate, 10 mM imidazole, and sonicated on ice for 1 minute. Proteins were purified by adding Ni-NTA Superflow beads (Qiagen, Valencia, CA, USA) to the lysate and subsequent rolling for 30 min at 4°C. Beads were washed twice with 50 mM phosphate buffer, pH 8.0, 0.5 M NaCl, 50 mM Imidazole, 2 mM DTT and eluted in the same buffer but with 200 mM imidazole. Purified PI3K's were mixed 1:1 with glycerol and stored at -20°C.
(§2) J-series inhibitors were dissolved, serial diluted in DMSO and deposited into 96 well plates at a final DMSO concentration of 1%. We used a novel assay to determine their potency and selectivity. In brief, micelles of 2.5 μg L-a-Phosphatidylinositol and 2.5 μg 1,2-Diacyl-sn-glycero-3-phospho-L-serine were formed by sonication, mixed with the individual PI3K isoforms and added to the drug dilutions in a reaction buffer containing 10 mM HEPES, 25 mM NaCl, 0.125 μg/μl BSA, and 2 mM BME (final concentrations). Reactions were timed after the addition of 10 μM ATP with 40 μCi/ml γ-32P-ATP (PerkinElmer, Waltham, MA, USA) and 2 mM MgCl2 (all final concentrations). The reactions were terminated after two hours by the addition of 2 N HCl and the lipids extracted with 1:1 MetOH/Chloroform. Radio-labeled phosphatidyl-inositol-3-phosphate in the extracted organic fraction was quantified after the addition of Microscint O (PerkinElmer) using a TopCount 96 well plate scintillation counter (PerkinElmer). IC50 concentrations and inhibition curves were calculated using Prism 5 (GraphPad Software, La Jolla, CA).

[2] = target: T2, p110γ (Homo sapiens, UniProt P48736); assay: Biochemical PI3K inhibition assay, p110γ
T2 construct: His-tag; made in house; host or cells: Sf9 insect cells (baculovirus)
From the text: as §1, §2

[3] = target: T3, p110δ (Homo sapiens, UniProt O00329); assay: Biochemical PI3K inhibition assay, p110δ; settings: 10 μM ATP, two hours
T3 construct: His-tag; made in house; host or cells: Sf9 insect cells (baculovirus)
From the text: as §1, §2

[4] = target: T4, mTOR (Homo sapiens, UniProt P42345); assay: Panel of 273 kinases, mTOR; assay type: biochemical
T4 construct: purchased Millipore (KinaseProfiler service)
Method: The compounds were also tested for their capacity to inhibit two common mutant forms of PI3Kα – E545K and H1047R [2, 33]. None of the compounds discriminated between the wild-type (wt) and mutant forms of the enzyme (data not shown). Finally, we also tested one of the compounds (J124, chosen for reasons discussed later) against a panel of 273 kinases.

[5] = tested on: Intraspleenic-injected HCT116 liver and lung metastases; assay: Intraspleenic tumor model (metastasis); assay type: in vivo, mice; settings: 150 mg/kg IP daily, three weeks
Method: Intraspleenic-injected HCT116 liver and lung metastases in NOD.Cg-Prkdcscid Il2rgtm1Wjl/SzJ mice (Jackson Laboratory, Bar Harbor, ME, USA) were generated as described in Erikson et. al.. J-series compounds were solubilized in 1:1 DMSO/Cremophor EL (Sigma-Aldrich) and diluted 2.3-fold in water to a final concentration of 7.5 mg/ml. 400 μl of this formulation (150 mg/kg) was injected intraperitoneally (IP) once a day for three weeks, beginning the third day post-surgery. Mice were sacrificed after the treatment and the liver, lungs, and spleen sampled. DNA was extracted from organs with the DNeasy Blood & Tissue Kit (Qiagen). The qPCR assay used for quantification of human DNA in mouse organs has been described. All mouse protocols were designed in accordance with the NIH Guide for the Care and Use of Laboratory Animals and approved by the Institutional Animal Care and Use Committee.

T1 sequence (P42338 whole entry): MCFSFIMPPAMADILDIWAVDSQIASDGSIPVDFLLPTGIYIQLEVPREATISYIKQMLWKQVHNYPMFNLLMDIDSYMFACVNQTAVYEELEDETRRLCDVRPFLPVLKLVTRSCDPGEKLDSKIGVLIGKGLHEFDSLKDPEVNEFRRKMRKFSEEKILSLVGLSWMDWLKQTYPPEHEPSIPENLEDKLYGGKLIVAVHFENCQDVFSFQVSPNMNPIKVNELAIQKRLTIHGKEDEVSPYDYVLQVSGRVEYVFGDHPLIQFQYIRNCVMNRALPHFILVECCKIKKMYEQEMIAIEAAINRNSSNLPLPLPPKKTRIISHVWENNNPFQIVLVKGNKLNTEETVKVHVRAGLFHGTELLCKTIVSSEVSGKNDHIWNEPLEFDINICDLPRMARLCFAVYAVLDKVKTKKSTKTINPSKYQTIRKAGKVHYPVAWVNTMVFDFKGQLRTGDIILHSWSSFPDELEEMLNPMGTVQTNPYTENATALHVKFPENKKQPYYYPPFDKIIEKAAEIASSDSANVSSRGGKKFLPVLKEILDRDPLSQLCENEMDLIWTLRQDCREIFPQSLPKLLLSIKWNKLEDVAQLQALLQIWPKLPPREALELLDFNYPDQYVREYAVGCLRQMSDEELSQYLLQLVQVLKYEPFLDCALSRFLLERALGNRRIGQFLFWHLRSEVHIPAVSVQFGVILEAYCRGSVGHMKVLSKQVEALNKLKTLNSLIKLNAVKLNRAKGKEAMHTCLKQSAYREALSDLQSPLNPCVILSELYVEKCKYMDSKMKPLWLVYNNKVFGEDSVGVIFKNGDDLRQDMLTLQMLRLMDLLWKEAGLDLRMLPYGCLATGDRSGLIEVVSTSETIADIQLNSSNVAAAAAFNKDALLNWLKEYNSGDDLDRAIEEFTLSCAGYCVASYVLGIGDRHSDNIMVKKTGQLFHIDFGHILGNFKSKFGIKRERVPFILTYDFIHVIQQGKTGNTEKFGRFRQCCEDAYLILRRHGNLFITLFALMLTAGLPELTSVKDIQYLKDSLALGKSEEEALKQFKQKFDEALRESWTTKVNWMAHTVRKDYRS
T1 sequence (P27986 322-600 partner limits assumed): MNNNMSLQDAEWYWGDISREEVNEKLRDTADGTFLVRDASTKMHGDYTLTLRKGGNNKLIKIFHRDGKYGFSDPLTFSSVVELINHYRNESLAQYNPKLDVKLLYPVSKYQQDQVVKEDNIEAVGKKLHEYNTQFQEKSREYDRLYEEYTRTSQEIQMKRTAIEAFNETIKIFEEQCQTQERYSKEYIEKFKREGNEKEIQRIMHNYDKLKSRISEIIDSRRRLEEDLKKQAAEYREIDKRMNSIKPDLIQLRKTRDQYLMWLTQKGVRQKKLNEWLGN
T2 sequence (P48736 whole entry): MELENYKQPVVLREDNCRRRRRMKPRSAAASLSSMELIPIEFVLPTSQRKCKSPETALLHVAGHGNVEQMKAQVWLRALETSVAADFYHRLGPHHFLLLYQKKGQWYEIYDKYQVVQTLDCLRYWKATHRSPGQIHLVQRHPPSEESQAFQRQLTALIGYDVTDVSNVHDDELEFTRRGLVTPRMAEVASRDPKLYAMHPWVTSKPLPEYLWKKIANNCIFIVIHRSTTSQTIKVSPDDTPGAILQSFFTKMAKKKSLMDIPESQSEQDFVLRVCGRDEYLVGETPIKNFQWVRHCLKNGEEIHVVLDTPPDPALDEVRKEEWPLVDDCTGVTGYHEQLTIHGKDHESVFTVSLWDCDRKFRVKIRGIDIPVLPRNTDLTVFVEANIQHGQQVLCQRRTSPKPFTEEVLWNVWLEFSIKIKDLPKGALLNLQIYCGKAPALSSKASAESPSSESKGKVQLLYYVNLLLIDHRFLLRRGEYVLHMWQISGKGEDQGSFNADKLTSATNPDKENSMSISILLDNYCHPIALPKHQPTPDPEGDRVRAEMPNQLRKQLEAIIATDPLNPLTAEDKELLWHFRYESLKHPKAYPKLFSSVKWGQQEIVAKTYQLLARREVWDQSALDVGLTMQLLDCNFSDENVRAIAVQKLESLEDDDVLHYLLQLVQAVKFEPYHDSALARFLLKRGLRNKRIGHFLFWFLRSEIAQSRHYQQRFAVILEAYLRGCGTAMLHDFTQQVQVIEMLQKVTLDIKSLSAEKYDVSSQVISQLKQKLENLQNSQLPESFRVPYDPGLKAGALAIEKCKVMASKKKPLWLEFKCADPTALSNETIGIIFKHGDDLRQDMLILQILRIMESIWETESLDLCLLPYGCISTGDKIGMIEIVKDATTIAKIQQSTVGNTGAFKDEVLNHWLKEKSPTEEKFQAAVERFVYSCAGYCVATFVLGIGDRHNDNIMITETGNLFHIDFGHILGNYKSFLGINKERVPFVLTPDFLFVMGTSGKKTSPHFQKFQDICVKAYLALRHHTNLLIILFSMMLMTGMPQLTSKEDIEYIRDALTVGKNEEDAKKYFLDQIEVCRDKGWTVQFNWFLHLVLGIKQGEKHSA
T3 sequence (O00329 whole entry): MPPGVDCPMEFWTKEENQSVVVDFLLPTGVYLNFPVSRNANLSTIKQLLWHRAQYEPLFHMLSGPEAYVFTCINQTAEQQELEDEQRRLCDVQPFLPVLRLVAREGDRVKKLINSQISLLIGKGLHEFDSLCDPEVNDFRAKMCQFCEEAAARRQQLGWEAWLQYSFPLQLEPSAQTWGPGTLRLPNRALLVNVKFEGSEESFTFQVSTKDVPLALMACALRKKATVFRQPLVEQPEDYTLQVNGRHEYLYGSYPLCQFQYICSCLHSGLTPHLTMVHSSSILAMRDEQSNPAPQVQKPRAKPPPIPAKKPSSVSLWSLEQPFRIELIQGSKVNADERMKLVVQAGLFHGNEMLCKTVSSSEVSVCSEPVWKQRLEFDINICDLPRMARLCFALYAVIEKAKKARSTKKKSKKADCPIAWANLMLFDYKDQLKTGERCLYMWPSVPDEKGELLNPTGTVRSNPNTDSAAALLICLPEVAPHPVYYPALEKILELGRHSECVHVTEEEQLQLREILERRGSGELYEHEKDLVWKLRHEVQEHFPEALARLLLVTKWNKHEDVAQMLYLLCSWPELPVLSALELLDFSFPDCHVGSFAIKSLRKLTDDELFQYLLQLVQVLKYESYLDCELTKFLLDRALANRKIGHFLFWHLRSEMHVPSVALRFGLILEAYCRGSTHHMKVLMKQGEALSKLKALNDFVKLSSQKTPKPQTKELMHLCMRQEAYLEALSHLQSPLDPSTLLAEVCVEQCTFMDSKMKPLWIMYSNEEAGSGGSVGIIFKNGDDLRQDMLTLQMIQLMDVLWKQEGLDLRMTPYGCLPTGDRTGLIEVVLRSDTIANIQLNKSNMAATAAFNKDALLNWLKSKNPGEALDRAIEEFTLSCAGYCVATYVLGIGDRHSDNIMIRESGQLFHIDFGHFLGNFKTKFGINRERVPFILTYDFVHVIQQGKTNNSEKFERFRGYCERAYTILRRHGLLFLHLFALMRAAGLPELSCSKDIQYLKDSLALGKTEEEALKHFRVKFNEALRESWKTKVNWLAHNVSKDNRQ
T3 sequence (P27986 322-600 partner limits assumed): as the sequence (P27986 322-600 partner limits assumed) above

CCN(/N=C/c1cnc2ccc(Br)cn12)S(=O)(=O)c1cc([N+](=O)[O-])c(NC(=O)C(F)(F)F)cc1C [J124]
IC50 ([1]; 10 μM ATP, two hours): 270 nM
selectivity against PI3Kβ ([1]; relative to PI3Kα): > 20 fold
IC50 ([2]; 10 μM ATP, two hours, no regulatory subunit): 380 nM
selectivity against PI3Kγ ([2]; relative to PI3Kα): > 30 fold
IC50 [3]: 160 nM
inhibition of mTOR with an IC50 of 11 nM or lower [4]: not mTOR
metastatic lesions in the lungs [5]: no lesions
metastatic foci in the liver (histopathology) ([5]; compared to vehicle): few, if any, metastatic foci
reduction in primary tumor burden in the spleen (real-time PCR) ([5]; compared to vehicle): ~ 50%
reduction of metastatic liver burden (real-time PCR) ([5]; compared to vehicle): 13 fold
